From US12110276B2 (Genentech, Inc., priority 2021, dated 2024)
Read-outs that look alike come from different tables or passages of the source.

Tests used:
TEAD1 = TEAD1 (Homo sapiens (Human), UniProt P28347); test: TR-FRET lipid pocket probe competition assay (Lipid HTRF), TEAD1; type: binding; details: 4 hours pre-incubation; read-out: Lipid HTRF TEAD1 IC50;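 further: His-tagged TEAD1 with biotinylated probe, detected via Europium anti-His and XL665 streptavidin, probe displacement lowers TR-FRET signal, IC50 from four-parameter nonlinear fit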
Sequence of TEAD1 (P28347 whole entry, species assumed): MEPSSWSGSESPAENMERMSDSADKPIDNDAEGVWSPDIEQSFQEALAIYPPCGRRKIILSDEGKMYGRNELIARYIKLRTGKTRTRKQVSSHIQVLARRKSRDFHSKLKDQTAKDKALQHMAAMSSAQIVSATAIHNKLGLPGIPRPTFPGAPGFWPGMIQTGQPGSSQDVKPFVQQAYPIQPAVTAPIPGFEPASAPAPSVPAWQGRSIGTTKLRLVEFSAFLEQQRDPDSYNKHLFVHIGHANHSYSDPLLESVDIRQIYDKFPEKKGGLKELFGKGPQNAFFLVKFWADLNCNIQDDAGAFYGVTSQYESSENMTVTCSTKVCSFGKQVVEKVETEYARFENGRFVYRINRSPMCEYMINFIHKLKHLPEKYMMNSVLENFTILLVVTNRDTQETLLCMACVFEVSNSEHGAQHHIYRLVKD
Procedure: His-tagged TEAD proteins are pre-incubated with TEAD project compounds for 30 minutes or 4 hours at room temperature. Biotinylated lipid pocket probes are then added to the TEAD/Compound mixture and incubated for 60 minutes at room temperature. The lipid pocket probe competes with the test compound for the TEAD lipid pocket until equilibrium is reached. After 60 minutes, Europium labelled anti-His (Perkin Elmer #AD0110) and XL665 labelled streptavidin (CIS Bio 610SAXAC) are added to the TEAD/test compound/lipid pocket mixture and incubated for 30 minutes or 4 hours. […] If a TEAD lipid pocket binder such as binds and displaces the lipid pocket probe, the disruption of the TEAD:probe interaction results in a decrease in TR-FRET signal. The potency of compounds as TEAD lipid pocket binders is determined by IC50 value generated using a non-linear 4 parameter curve fit.

TEAD4 = TEAD4 (Homo sapiens (Human), UniProt Q15561); test: TR-FRET lipid pocket probe competition assay (Lipid HTRF), TEAD4; type: binding; details: 4 hours pre-incubation; read-out: Lipid HTRF TEAD4 IC50;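 further: His-tagged TEAD4 with biotinylated lipid-pocket probe, read by Europium anti-His and XL665 streptavidin, where probe displacement lowers the TR-FRET signal, IC50 from a four-parameter fit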
Sequence of TEAD4 (Q15561 whole entry, species assumed): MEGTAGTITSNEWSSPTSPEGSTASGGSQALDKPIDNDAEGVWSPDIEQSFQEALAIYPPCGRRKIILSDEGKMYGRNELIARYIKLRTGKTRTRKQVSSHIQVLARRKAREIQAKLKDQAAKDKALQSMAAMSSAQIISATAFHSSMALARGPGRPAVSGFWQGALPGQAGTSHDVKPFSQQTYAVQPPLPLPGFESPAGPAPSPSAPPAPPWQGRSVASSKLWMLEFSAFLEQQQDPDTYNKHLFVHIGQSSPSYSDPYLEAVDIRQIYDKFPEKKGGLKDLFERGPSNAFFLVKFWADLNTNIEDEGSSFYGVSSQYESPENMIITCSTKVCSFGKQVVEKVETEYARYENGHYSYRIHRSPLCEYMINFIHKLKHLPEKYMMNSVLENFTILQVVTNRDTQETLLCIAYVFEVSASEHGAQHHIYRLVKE

TEAD2 [1] = target: T1, TEAD2 (Homo sapiens (Human), UniProt Q15562); test: biochemical;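 further: TR-FRET competition assay with His-tagged TEAD protein and a biotinylated lipid pocket probe, compound pre-incubated 30 min or 4 h at room temperature, displacement lowers signal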
T1 sequence (Q15562 whole entry, species assumed): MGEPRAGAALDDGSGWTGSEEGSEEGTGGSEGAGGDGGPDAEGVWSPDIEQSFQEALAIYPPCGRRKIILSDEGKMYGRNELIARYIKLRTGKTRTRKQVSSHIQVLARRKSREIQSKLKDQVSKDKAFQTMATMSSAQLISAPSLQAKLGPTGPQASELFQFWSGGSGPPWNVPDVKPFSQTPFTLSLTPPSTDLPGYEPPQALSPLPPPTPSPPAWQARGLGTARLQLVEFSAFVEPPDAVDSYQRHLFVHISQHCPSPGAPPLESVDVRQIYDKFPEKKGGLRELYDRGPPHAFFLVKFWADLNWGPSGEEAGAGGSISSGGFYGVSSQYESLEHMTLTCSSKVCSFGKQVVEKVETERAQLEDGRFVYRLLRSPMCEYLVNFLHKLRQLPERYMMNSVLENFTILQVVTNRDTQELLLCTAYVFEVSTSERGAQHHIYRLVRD

TEAD3 = TEAD3 (Homo sapiens (Human), UniProt Q99594); test: TR-FRET lipid pocket probe competition assay (Lipid HTRF), TEAD3; type: binding; details: 4 hours pre-incubation; read-out: Lipid HTRF TEAD3 IC50
Sequence of TEAD3 (Q99594 whole entry, species assumed): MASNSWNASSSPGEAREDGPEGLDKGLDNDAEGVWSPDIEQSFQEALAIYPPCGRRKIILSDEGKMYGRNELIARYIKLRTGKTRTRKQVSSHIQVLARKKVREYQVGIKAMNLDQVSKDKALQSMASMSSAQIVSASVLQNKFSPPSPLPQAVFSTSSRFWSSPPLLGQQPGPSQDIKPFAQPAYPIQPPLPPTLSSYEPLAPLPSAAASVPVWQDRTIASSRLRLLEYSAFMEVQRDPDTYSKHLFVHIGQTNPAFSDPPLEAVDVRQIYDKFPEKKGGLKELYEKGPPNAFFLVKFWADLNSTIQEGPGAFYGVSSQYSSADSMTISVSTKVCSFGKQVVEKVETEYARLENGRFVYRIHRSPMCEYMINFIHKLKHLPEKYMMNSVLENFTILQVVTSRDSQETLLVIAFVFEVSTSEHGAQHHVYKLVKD

TEAD2 [2] = target: T1, TEAD2

Row | SMILES | IC50 (TEAD1) | IC50 (TEAD4) | IC50 (TEAD2 [1]) | IC50 (TEAD3) | IC50 (TEAD2 [2])
1 | C=CC(=O)NCc1nn(-c2ccc(S(F)(F)(F)(F)F)cc2)c2nccc([C@H](O)CO)c12 (stereo in doubt) [Compound 23, N-((4-(1,2-dihydroxyethyl)-1-(4-(pentafluoro-λ^6-sulfanyl)phenyl)-1H-pyrazolo[3,4-b]pyridin-3-yl)methyl)acrylamide] | 43 nM | 17 nM | 66 nM | 890 nM | –
2 | C=CC(=O)NCc1nn(-c2ccc(S(F)(F)(F)(F)F)cc2)c2nccc([C@@H](O)CO)c12 (stereo in doubt) [Compound 27, N-((4-(1,2-dihydroxyethyl)-1-(4-(pentafluoro-λ^6-sulfanyl)phenyl)-1H-pyrazolo[3,4-b]pyridin-3-yl)methyl)acrylamide] | 290 nM | 71 nM | 270 nM | 1100 nM | –
3 | C=C(F)C(=O)N1CC(c2nn(-c3ccc(OC(F)(F)F)cc3)c3nccc(-c4cnn(C5COC5)c4)c23)C1 [Compound 175, 2-fluoro-1-(3-(4-(1-(oxetan-3-yl)-1H-pyrazol-4-yl)-1-(4-(trifluoromethoxy)phenyl)-1H-pyrazolo[3,4-b]pyridin-3-yl)azetidin-1-yl)prop-2-en-1-one] | 62 nM | 45 nM | – | 50000 nM | 420 nM
4 | C=C(F)C(=O)N1CC(c2nn(-c3ccc(OC(F)(F)F)cc3)c3nccc(-c4cnn(CCOC)c4)c23)C1 [Compound 176, 2-fluoro-1-(3-(4-(1-(2-methoxyethyl)-1H-pyrazol-4-yl)-1-(4-(trifluoromethoxy)phenyl)-1H-pyrazolo[3,4-b]pyridin-3-yl)azetidin-1-yl)prop-2-en-1-one] | 46 nM | 77 nM | – | 50000 nM | 800 nM
5 | C=C(F)C(=O)N1CC(c2nn(-c3ccc(OC(F)(F)F)cc3)c3nccc(-c4cnn(C5CC5)c4)c23)C1 [Compound 177, 1-(3-(4-(1-cyclopropyl-1H-pyrazol-4-yl)-1-(4-(trifluoromethoxy)phenyl)-1H-pyrazolo[3,4-b]pyridin-3-yl)azetidin-1-yl)-2-fluoroprop-2-en-1-one] | 86 nM | 120 nM | – | 50000 nM | 890 nM
6 | C=C(F)C(=O)N1CC(c2nn(-c3ccc(OC(F)(F)F)cc3)c3nccc(-c4cnn(CCS(C)(=O)=O)c4)c23)C1 [Compound 179, 2-fluoro-1-(3-(4-(1-(2-(methylsulfonyl)ethyl)-1H-pyrazol-4-yl)-1-(4-(trifluoromethoxy)phenyl)-1H-pyrazolo[3,4-b]pyridin-3-yl)azetidin-1-yl)prop-2-en-1-one] | 32 nM | 17 nM | – | 50000 nM | 650 nM
7 | C=C(F)C(=O)N1CC(c2nn(-c3ccc(OC(F)(F)F)cc3)c3nccc(-c4cnn(CC(=O)N(C)C)c4)c23)C1 [Compound 180, 2-(4-(3-(1-(2-fluoroacryloyl)azetidin-3-yl)-1-(4-(trifluoromethoxy)phenyl)-1H-pyrazolo[3,4-b]pyridin-4-yl)-1H-pyrazol-1-yl)-N,N-dimethylacetamide] | 43 nM | 110 nM | – | 50000 nM | 160 nM
8 | C=C(F)C(=O)N1CC(c2nn(-c3ccc(OC(F)(F)F)cc3)c3nccc(-c4cnn(CC(N)=O)c4)c23)C1 [Compound 181, 2-(4-(3-(1-(2-fluoroacryloyl)azetidin-3-yl)-1-(4-(trifluoromethoxy)phenyl)-1H-pyrazolo[3,4-b]pyridin-4-yl)-1H-pyrazol-1-yl)acetamide] | 24 nM | 37 nM | – | 50000 nM | 62 nM
9 | C=C(F)C(=O)N1CC(c2nn(-c3ccc(OC(F)(F)F)cc3)c3nccc(-c4cn[nH]c4)c23)C1 [Compound 182, 1-(3-(4-(1H-pyrazol-4-yl)-1-(4-(trifluoromethoxy)phenyl)-1H-pyrazolo[3,4-b]pyridin-3-yl)azetidin-1-yl)-2-fluoroprop-2-en-1-one] | 25 nM | 13 nM | – | 440 nM | 130 nM
10 | C=C(F)C(=O)N1CC(c2nn(-c3ccc(OC(F)(F)F)cc3Cl)c3nccc(CO)c23)C1 [Compound 183, 1-(3-(1-(2-chloro-4-(trifluoromethoxy)phenyl)-4-(hydroxymethyl)-1H-pyrazolo[3,4-b]pyridin-3-yl)azetidin-1-yl)-2-fluoroprop-2-en-1-one] | 180 nM | 110 nM | – | 1100 nM | 1800 nM
11 | C=C(F)C(=O)N1CC(c2nn(-c3ccc(OC(F)(F)F)cc3C)c3nccc(CO)c23)C1 [Compound 184, 2-fluoro-1-(3-(4-(hydroxymethyl)-1-(2-methyl-4-(trifluoromethoxy)phenyl)-1H-pyrazolo[3,4-b]pyridin-3-yl)azetidin-1-yl)prop-2-en-1-one] | 140 nM | 100 nM | – | 790 nM | 2300 nM
12 | C=C(F)C(=O)N1CC(c2nn(-c3ccc(OC(F)(F)F)cc3F)c3nccc(CO)c23)C1 [Compound 185, 2-fluoro-1-[3-[1-[2-fluoro-4-(trifluoromethoxy)phenyl]-4-(hydroxymethyl)pyrazolo[3,4-b]pyridin-3-yl]azetidin-1-yl]prop-2-en-1-one] | 57 nM | 31 nM | – | 260 nM | 120 nM
13 | C=CC(=O)NCc1nn(-c2ccc(OC(F)(F)F)cc2)c2cccc(C#N)c12 [Compound 186, N-((4-cyano-1-(4-(trifluoromethoxy)phenyl)-1H-indazol-3-yl)methyl)acrylamide] | 270 nM | 52.5 nM | – | 255 nM | 430 nM

Second part, the molecule after the results:

Row | IC50 (TEAD1) | IC50 (TEAD4) | IC50 (TEAD2 [1]) | IC50 (TEAD3) | IC50 (TEAD2 [2]) | SMILES
14 | 47.9 nM | 32 nM | – | 2040 nM | 129 nM | C=CC(=O)NCc1nn(-c2ccc(OC(F)(F)F)cc2)c2nccc(-c3cnn(C)c3)c12 [Compound 164, N-((4-(1-methyl-1H-pyrazol-4-yl)-1-(4-(trifluoromethoxy)phenyl)-1H-pyrazolo[3,4-b]pyridin-3-yl)methyl)acrylamide]
15 | 120 nM | 100 nM | – | 50000 nM | 40 nM | C=CC(=O)NCc1nn(-c2ccc(OC(F)(F)F)cc2)c2nccc(-c3cnn(CC(N)=O)c3)c12 [Compound 165, N-((4-(1-(2-amino-2-oxoethyl)-1H-pyrazol-4-yl)-1-(4-(trifluoromethoxy)phenyl)-1H-pyrazolo[3,4-b]pyridin-3-yl)methyl)acrylamide]
16 | 57 nM | 35 nM | – | 1700 nM | 210 nM | C=CC(=O)NCc1nn(-c2ccc(OC(F)(F)F)cc2)c2nccc(-c3cnn(CCOC)c3)c12 [Compound 167, N-[[4-[1-(2-methoxyethyl)pyrazol-4-yl]-1-[4-(trifluoromethoxy)phenyl]pyrazolo[3,4-b]pyridin-3-yl]methyl]prop-2-enamide]
17 | 140 nM | 49 nM | – | 50000 nM | 1100 nM | C=CC(=O)NCc1nn(-c2ccc(OC(F)(F)F)cc2)c2nccc(-c3cnn(CCS(C)(=O)=O)c3)c12 [Compound 168, N-((4-(1-(2-(methylsulfonyl)ethyl)-1H-pyrazol-4-yl)-1-(4-(trifluoromethoxy)phenyl)-1H-pyrazolo[3,4-b]pyridin-3-yl)methyl)acrylamide]
18 | 120 nM | 92.8 nM | – | 26600 nM | 355 nM | C=CC(=O)NCc1nn(-c2ccc(OC(F)(F)F)cc2)c2nccc(-c3cnn(C(C)C)c3)c12 [Compound 170, N-[[4-(1-isopropylpyrazol-4-yl)-1-[4-(trifluoromethoxy)phenyl]pyrazolo[3,4-b]pyridin-3-yl]methyl]prop-2-enamide]
19 | 60 nM | 29 nM | – | 810 nM | 330 nM | C=CC(=O)NCc1nn(-c2ccc(OC(F)(F)F)cc2)c2nccc(-c3cnn(C4COC4)c3)c12 [Compound 171, N-[[4-[1-(oxetan-3-yl)pyrazol-4-yl]-1-[4-(trifluoromethoxy)phenyl]pyrazolo[3,4-b]pyridin-3-yl]methyl]prop-2-enamide]
20 | 470 nM | 150 nM | – | 19000 nM | 810 nM | C=CC(=O)NCc1nn(-c2ccc(OC(F)(F)F)cc2)c2nccc(-c3cnn(CCN(C)C)c3)c12 [Compound 172, N-[[4-[1-[2-(dimethylamino)ethyl]pyrazol-4-yl]-1-[4-(trifluoromethoxy)phenyl]pyrazolo[3,4-b]pyridin-3-yl]methyl]prop-2-enamide]
21 | 86 nM | 52.5 nM | – | 26200 nM | 382 nM | C=CC(=O)NCc1nn(-c2ccc(OC(F)(F)F)cc2)c2nccc(-c3cnn(C4CC4)c3)c12 [Compound 173, N-((4-(1-cyclopropyl-1H-pyrazol-4-yl)-1-(4-(trifluoromethoxy)phenyl)-1H-pyrazolo[3,4-b]pyridin-3-yl)methyl)acrylamide]
22 | 87 nM | 200 nM | – | 50000 nM | 860 nM | C=C(F)C(=O)N1CC(c2nn(-c3ccc(OC(F)(F)F)cc3)c3nccc(-c4cnn(C(C)C)c4)c23)C1 [Compound 178, 2-fluoro-1-(3-(4-(1-isopropyl-1H-pyrazol-4-yl)-1-(4-(trifluoromethoxy)phenyl)-1H-pyrazolo[3,4-b]pyridin-3-yl)azetidin-1-yl)prop-2-en-1-one]
23 | 91 nM | 55 nM | – | 950 nM | 1200 nM | C=CC(=O)NCc1nn(-c2ccc(OC(F)(F)F)cc2)c2cccnc12 [Compound 187, N-((1-(4-(trifluoromethoxy)phenyl)-1H-pyrazolo[4,3-b]pyridin-3-yl)methyl)acrylamide]
24 | 7.2 nM | 7.3 nM | – | 150 nM | 84 nM | C=CC(=O)NCc1nn(-c2ccc(OC(F)(F)F)cc2)c2ncccc12 [Compound 188, N-((1-(4-(trifluoromethoxy)phenyl)-1H-pyrazolo[3,4-b]pyridin-3-yl)methyl)acrylamide]
